Consider ten compounds from ChEMBL document CHEMBL1201862, “PubChem BioAssay data set” (2004).

Some test systems named below: HT-29; UACC-62; KM12; DU-145; MOLT-4; A549; PC-3; UACC-257; HCT-116; IGROV-1; OVCAR-4; NCI/ADR-RES; M14; K562; COLO 205; SR; CCRF-CEM; MDA-MB-435; ACHN; SF-539.
What all share (assay): inhibition of tumour cell growth, NCI panel, 48 h

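Results reflect a 48-hour exposure of cells in 96-well plates to compound at five concentrations. The concentration for 50% growth inhibition is given as GI50.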 Activity calls are given as the source filed them. Rule as the data show it: active = GI50 up to about 1.1 µM and inactive = higher. Non-standard residues stand in square brackets, D forms with d. Residues, ends and D or L forms follow the SMILES beside them. *: point of attachment. Ac5c = NC1(C(=O)O)CCCC1; Cbz = O=C(OCc1ccccc1)*; Boc = CC(C)(C)OC(=O)*; tBu = CC(C)(C)* A value given as a limit tells only on which side of the number the result lay.

Consider `CCc1nc2cc3cccnc3c(Cl)c2[nH]c1=O`, for which the GI50 in the test with HT-29, with UACC-62, in the test with KM12, in the test on DU-145, with MOLT-4 and with A549 was > 100 µM (inactive) each time. Besides, the GI50 in the test on PC-3 was > 100 µM (inactive); with UACC-257 it was > 100 µM (inactive); in the test with HCT-116, > 100 µM (inactive); in the test with IGROV-1, 71 µM (inactive); in the test with OVCAR-4, > 100 µM (inactive); in the test with NCI/ADR-RES, 79.1 µM (inactive). Also, the GI50 in the test with M14, with K562, in the test on COLO 205, in the test on SR, with CCRF-CEM and with MDA-MB-435 was > 100 µM (inactive) each time. Also, the GI50 in the test with ACHN is 78.7 µM (inactive).

Regarding `CN1C(C)(C)CC(=O)C(Br)C1(C)C` (stereo not given), the GI50 in the test with HT-29, in the test with UACC-62, with KM12, in the test with DU-145, in the test with MOLT-4 and with A549 was > 100 µM (inactive) in each case. In addition, the GI50 with PC-3 was > 100 µM (inactive); in the test on UACC-257 it was > 100 µM (inactive); with HCT-116 it was > 10 µM (inactive); in the test on IGROV-1 it was > 100 µM (inactive); with OVCAR-4, > 100 µM (inactive); with NCI/ADR-RES, > 100 µM (inactive). Moreover, the GI50 with M14, with K562, in the test with COLO 205, in the test with SR, with CCRF-CEM and in the test on MDA-MB-435 was > 100 µM (inactive) throughout. Besides, the GI50 in the test on ACHN was > 100 µM (inactive).

Turning to `O=C1c2ccccc2CC12Cc1cc3c(cc1C2)CCC3`, the GI50 in the test on HT-29 was 21.9 µM (inactive); in the test on KM12 it was 53.5 µM (inactive); in the test on DU-145, > 100 µM (inactive); with MOLT-4 it was 22.6 µM (inactive); in the test with A549, > 100 µM (inactive); in the test on PC-3, 39.8 µM (inactive). For the same compound, the GI50 is 31.9 µM (inactive) in the test on UACC-257; 30.6 µM (inactive) with HCT-116; 87.3 µM (inactive) with IGROV-1; > 100 µM (inactive) in the test with OVCAR-4; 44 µM (inactive) in the test with NCI/ADR-RES; 19.5 µM (inactive) in the test with M14. Moreover, the GI50 in the test with K562 was 86.7 µM (inactive); with SF-539 it was > 100 µM (inactive); with COLO 205 it was 31.3 µM (inactive); with SR, 16.7 µM (inactive); in the test with CCRF-CEM it was 55.3 µM (inactive); in the test with MDA-MB-435, 34 µM (inactive). Further, the GI50 with ACHN is 43.3 µM (inactive).

For the compound `Oc1cc(Cl)cc2cccnc12`, the GI50 in the test with HT-29 is 9.31 µM (inactive); in the test with UACC-62, 1.01 µM (active); in the test with KM12, 4.78 µM (inactive); in the test on DU-145, 9.71 µM (inactive); in the test on MOLT-4, 0.465 µM (active); in the test on A549, 0.998 µM (active). Further, the GI50 with PC-3 is 1.26 µM (inactive); in the test on UACC-257, 1.38 µM (inactive); in the test with HCT-116, 1.43 µM (inactive); with IGROV-1, 0.986 µM (active); in the test on OVCAR-4, 0.411 µM (active); in the test with NCI/ADR-RES it was 0.354 µM (active). Further, the GI50 in the test with M14 is 10.5 µM (inactive); in the test with K562, 0.396 µM (active); in the test with COLO 205 it was 6.65 µM (inactive); in the test with SR it was 0.449 µM (active); in the test with CCRF-CEM, 0.288 µM (active); in the test with MDA-MB-435 it was 3.52 µM (inactive). The GI50 in the test with ACHN was 1.38 µM (inactive).

With `Cc1nc2[nH]ncn2c(=O)c1CCCl`, the GI50 in the test on HT-29, in the test with UACC-62, in the test with DU-145, with MOLT-4, with A549 and with PC-3 was > 10 µM (inactive) in each case. For the same compound, the GI50 in the test with HCT-116, in the test with IGROV-1, in the test with OVCAR-4, in the test on NCI/ADR-RES, in the test on M14 and with K562 was > 10 µM (inactive) throughout. Also, the GI50 in the test with SF-539, in the test on COLO 205, with SR, in the test with CCRF-CEM, in the test on MDA-MB-435 and with ACHN was > 10 µM (inactive) each time.

With `Cc1cc(C)n(C(=O)C(C)Sc2nnc(SC(C)C(=O)n3nc(C)cc3C)s2)n1` (stereo not given), the GI50 in the test with HT-29, in the test on UACC-62, in the test with KM12, in the test with DU-145, in the test with MOLT-4 and in the test with A549 was > 100 µM (inactive) throughout. The GI50 in the test with PC-3, in the test with UACC-257, in the test on HCT-116, in the test with IGROV-1, in the test with OVCAR-4 and with NCI/ADR-RES was > 100 µM (inactive) throughout. Further, the GI50 in the test on M14, with K562, with COLO 205, with SR, with CCRF-CEM and in the test with MDA-MB-435 was > 100 µM (inactive) each time. Moreover, the GI50 in the test on ACHN was > 100 µM (inactive).

As to `CN1CCN(c2ccc3c(c2)NCC(=O)N3)CC1`, the GI50 in the test on HT-29, in the test with UACC-62, in the test with KM12, in the test with DU-145, in the test on MOLT-4 and in the test with A549 was > 100 µM (inactive) each time. The GI50 in the test with PC-3, with UACC-257, with HCT-116, with IGROV-1, in the test with OVCAR-4 and with NCI/ADR-RES was > 100 µM (inactive) throughout. Moreover, the GI50 in the test with M14, with K562, in the test on COLO 205, in the test with SR, in the test with CCRF-CEM and in the test on MDA-MB-435 was > 100 µM (inactive) in each case. Also, in the test on ACHN, the GI50 was > 100 µM (inactive).

Take `Cc1cc(N(CCC#N)CCC#N)ccc1C(/N=N/c1ccc(Cl)cc1)=N\NC(=O)c1ccccc1`: the GI50 is 20.5 µM (inactive) in the test on HT-29; 29.8 µM (inactive) in the test on UACC-62; 20.2 µM (inactive) in the test on KM12; 44.7 µM (inactive) with DU-145; 40 µM (inactive) with MOLT-4; 42.7 µM (inactive) in the test on A549. Further, the GI50 was 32.5 µM (inactive) in the test on PC-3; 58.7 µM (inactive) in the test on UACC-257; 26.5 µM (inactive) with HCT-116; 24.5 µM (inactive) in the test with IGROV-1; 47.8 µM (inactive) in the test on OVCAR-4; 27.4 µM (inactive) in the test with NCI/ADR-RES. Moreover, the GI50 with M14 is 80.5 µM (inactive); in the test on K562, 14.9 µM (inactive); in the test with SF-539, 7.62 µM (inactive); in the test with COLO 205, 27.6 µM (inactive); in the test on SR it was 9.59 µM (inactive); in the test with CCRF-CEM, 31.5 µM (inactive). Besides, the values for the GI50 in the test with MDA-MB-435 and with ACHN were 5.62 µM (inactive) and 82 µM (inactive), respectively.

For `C=C1C(=O)O[C@H]2C1C[C@H](O)[C@@]1(C)OC1CC[C@@]1(C)O[C@H]21` (stereo not given in full), the GI50 with HT-29 was 32.5 µM (inactive); in the test on UACC-62, 14.6 µM (inactive); with KM12, 25.1 µM (inactive); in the test on DU-145, 34.5 µM (inactive); with MOLT-4 it was 10.1 µM (inactive); in the test with A549 it was > 100 µM (inactive). The GI50 in the test on PC-3 was 17.8 µM (inactive); in the test on UACC-257, 18.1 µM (inactive); in the test with HCT-116, 16.6 µM (inactive); in the test with IGROV-1, 14.9 µM (inactive); with OVCAR-4 it was 13.6 µM (inactive); in the test with NCI/ADR-RES, 20.9 µM (inactive). The GI50 in the test with M14 was 15.5 µM (inactive); with K562, 4.28 µM (inactive); in the test on COLO 205, 4.88 µM (inactive); in the test on SR it was 17.8 µM (inactive); with CCRF-CEM it was 2.61 µM (inactive); in the test with MDA-MB-435, 23.5 µM (inactive). In addition, the GI50 in the test with ACHN is 18.1 µM (inactive).

Turning to `COC(=O)C1(NC(=O)C(Cc2ccccc2)NC(=O)C(NC(=O)C(CCCCNC(=O)OC(C)(C)C)NC(=O)C(Cc2c[nH]c3ccccc23)NC(=O)C(Cc2ccccc2)NC(=O)OCc2ccccc2)C(C)OC(C)(C)C)CCCC1` (stereo not given) (Cbz-FWK(Boc)T(tBu)F[Ac5c]-OMe; configuration not given here), the GI50 in the test on HT-29, with UACC-62, with KM12, with DU-145, with A549 and in the test on PC-3 was > 100 µM (inactive) throughout. The GI50 in the test with UACC-257 was > 100 µM (inactive); in the test on HCT-116, > 100 µM (inactive); with IGROV-1 it was 88.1 µM (inactive); in the test on OVCAR-4 it was > 100 µM (inactive); in the test with NCI/ADR-RES, > 100 µM (inactive); in the test with M14, 18.9 µM (inactive). Also, the GI50 in the test with K562 is > 100 µM (inactive); in the test on SF-539 it was > 10 µM (inactive); in the test on COLO 205 it was > 100 µM (inactive); in the test on SR it was > 100 µM (inactive); with CCRF-CEM, 98.9 µM (inactive); with MDA-MB-435, > 100 µM (inactive). Moreover, the GI50 in the test with ACHN was > 100 µM (inactive).
